One experiment deals with T1, thromboxane synthetase (Homo sapiens, UniProt P24557).
T1 construct: endogenous in cells; host or cells: human platelets (platelet-rich plasma passed through Sepharose 2B)
T1 sequence (P24557 1-533): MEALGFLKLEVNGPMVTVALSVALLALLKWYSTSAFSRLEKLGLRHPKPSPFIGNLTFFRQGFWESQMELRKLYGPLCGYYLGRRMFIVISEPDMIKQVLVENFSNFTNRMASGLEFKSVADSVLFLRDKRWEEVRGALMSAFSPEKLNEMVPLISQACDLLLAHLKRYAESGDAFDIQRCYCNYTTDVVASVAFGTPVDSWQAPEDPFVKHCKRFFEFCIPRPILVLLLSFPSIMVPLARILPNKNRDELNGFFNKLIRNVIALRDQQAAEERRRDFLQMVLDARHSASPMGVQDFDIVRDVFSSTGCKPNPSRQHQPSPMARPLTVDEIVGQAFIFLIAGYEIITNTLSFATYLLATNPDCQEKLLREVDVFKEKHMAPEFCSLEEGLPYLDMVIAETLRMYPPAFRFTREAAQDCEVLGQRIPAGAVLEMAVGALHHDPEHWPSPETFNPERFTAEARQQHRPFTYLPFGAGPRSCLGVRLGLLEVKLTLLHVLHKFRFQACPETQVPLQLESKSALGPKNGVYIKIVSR
The experiment can be described thus: Inhibitory effect on thromboxane synthetase (TXB2 formation in human platelet suspension). In kind it is cell-based. The following applies: 10 minutes at ambient temperature, then 14C-labelled arachidonic acid 10 minutes, read-out: Inhibition of thromboxane synthetase IC50. On the procedure:
Determining the Inhibitory Effect on Thromboxane Synthetase
Venous human blood is anti-coagulated with 13 mM Na3 citrate and centrifuged for 10 minutes at 170×g. The supernatant platelet-rich plasma is passed through a Sepharose 2B column in order to remove the plasma proteins. Aliquots of the platelet suspension obtained are incubated with the test substance or with a solvent as control for 10 minutes at ambient temperature and after the addition of ^14 C-labelled arachidonic acid incubation is continued for a further 10 minutes. After this has been stopped with 50 μl of citric acid, extraction is carried out 3 times with 500 μl of ethyl acetate and the combined extracts are distilled off with nitrogen. The residue is taken up in ethyl acetate, placed on TLC film and separated with chloro-form:methanol:glacial acetic acid:water (90:8:1:0.8, v/v/v/v). The dried TLC films are placed on X-ray film for 3 days, the autoradiograms were developed and the active zones were marked on the film using the autoradiograms. After cutting out, the activity is measured in a scintillation counter and the inhibition of the formation of TXB2 is calculated. The IC50 is determined by linear interpolation.

In the next experiment the target is T2, Thromboxane (Homo sapiens, UniProt P21731).
T2 construct: endogenous in cells; host or cells: human platelets (platelet-rich plasma passed through Sepharose 2B)
T2 sequence (P21731 1-343): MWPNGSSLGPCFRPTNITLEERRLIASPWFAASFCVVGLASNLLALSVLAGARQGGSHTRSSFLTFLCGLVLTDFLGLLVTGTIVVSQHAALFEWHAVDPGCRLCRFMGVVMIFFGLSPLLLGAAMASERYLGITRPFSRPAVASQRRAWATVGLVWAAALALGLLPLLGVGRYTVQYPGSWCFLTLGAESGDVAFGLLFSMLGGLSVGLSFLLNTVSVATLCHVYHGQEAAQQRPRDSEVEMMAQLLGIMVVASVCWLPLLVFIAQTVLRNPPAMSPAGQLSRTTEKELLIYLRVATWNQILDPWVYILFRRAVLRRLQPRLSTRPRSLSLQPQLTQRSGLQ
Nature of the experiment: Thromboxane-antagonistic activity (displacement of 3H-labelled ligand on human platelets). In kind it is binding. The settings on record: human platelet suspension, 60 minutes at ambient temperature. As for the experimental part: Thromboxane-antagonistic Activity
Venous human blood is anti-coagulated with 13 mM Na3 citrate and centrifuged for 10 minutes at 170×g. The supernatant platelet-rich plasma is passed through a Sepharose 2B column in order to remove the plasma proteins. Aliquots of the platelet suspension obtained are incubated with the test substance, the ligand (^3 H-labelled) and a marker (^14 C-labelled) for 60 minutes at ambient temperature and then centrifuged for 20 seconds at 10,000×g. The supernatant is removed and the pellet is dissolved in NaOH. The ^3 H activity in the supernatant corresponds to the free ligand, ^14 C gives the concentration of the marker. ^3 H in the pellet corresponds to the bound ligand whilst ^14 C is used to correct for the ligand in the extracellular space. After the process has been repeated, the displacement curve is determined from the binding values for different concentrations of the test substance and the IC50 is determined.

Another experiment deals with thrombocyte aggregation. The experiment can be described thus: Antithrombotic activity: collagen-induced aggregation in platelet-rich plasma (Born and Cross). In kind it is cell-based. The following applies: Homo sapiens, 10 min; platelet-rich plasma from healthy volunteers; incubated 10 minutes at 37° C.; 50% change in optical density; read-out: Inhibition of collagen-induced aggregation EC50. On the procedure: The thrombocyte aggregation is measured using the method of Born and Cross (J. Physiol. 170, 397 (1964)) in platelet-rich plasma taken from healthy volunteers. To inhibit coagulation, the blood is mixed with 3.14% strength sodium citrate in a ratio by volume of 1:10.
Collagen-induced Aggregation
The pattern of decrease in the optical density of the platelet suspension is photometrically measured and recorded after the addition of the aggregation-triggering substance. The rate of aggregation is concluded from the angle of inclination of the density curve. The point on the curve where there is greatest light transmittance is used to calculate the "optical density".
The quantity of collagen used is as little as possible but sufficient to produce an irreversible reaction curve. Standard commercial collagen produced by Hormonchemie of Munich is used. Before the addition of the collagen the plasma is incubated for 10 minutes with the substance at 37° C.
From the measurements obtained an EC50 is determined by plotting a graph, and indicates a 50% change in the "optical density" in terms of the inhibition of aggregation.

In the case of `N#CN=C(Nc1cccc(/C(=C\CCCC(=O)O)c2cccnc2)c1)N[C@@H]1C[C@H]2CC[C@@H]1C2` (relative stereo) [E, 5E-6-(3-(2-cyano-3-(exo-norborn-2-yl)guanidino)phenyl)-6-(3-pyridyl)hex-5-enoic acid], the IC50 at thromboxane synthetase was found to be 4 nM; on Thromboxane, 17 nM. Also, in the experiment with thrombocyte aggregation, the EC50 was found to be 750 nM.

`N#CN=C(Nc1cccc(/C(=C\CCCC(=O)O)c2cccnc2)c1)NC1CC1` [A, 5E-6-(3-(2-cyano-3-cyclopropyl-guanidino)phenyl)-6-(3-pyridyl)hex-5-enoicacid]: the IC50 came to 380 nM on thromboxane synthetase and 17 nM on Thromboxane.

Consider `CC(C)(C)NC(=NC#N)Nc1cccc(/C(=C\CCCC(=O)O)c2cccnc2)c1` [B, 5E-6-(3-(2-cyano-3-tert.butyl-guanidino)phenyl)-6-(3-pyridyl)hex-5-enoic acid], for which the IC50 on Thromboxane came to 11 nM. Also, the EC50 in the experiment on thrombocyte aggregation was found to be 500 nM.

As to `N#CN=C(Nc1cccc(/C(=C\CCCC(=O)O)c2cccnc2)c1)NC1CCCC1` [C, 5E-6-(3-(2-cyano-3-cyclopentyl-guanidino)phenyl)-6-(3-pyridyl)hex-5-enoicacid], the IC50 at thromboxane synthetase is 3 nM; at Thromboxane it was 30 nM. The EC50 in the experiment with thrombocyte aggregation came out at 530 nM.

For the compound `CC(C)NC(=NC#N)Nc1cccc(/C(=C\CCCC(=O)O)c2cccnc2)c1` [D, 5E-6-(3-(2-cyano-3-isopropyl-guanidino)phenyl)-6-(3-pyridyl)hex-5-enoic acid], the IC50 at thromboxane synthetase was found to be 24 nM; on Thromboxane it was 18 nM.

In the case of `CC(C)CCNC(=NC#N)Nc1cccc(/C(=C\CCCC(=O)O)c2cccnc2)c1` [Example I, 5E-6-(3-(2-cyano-3-(3-methylbutyl)guanidino)phenyl)-6-(3-pyridyl)hex-5-enoic acid], the results for the IC50 on thromboxane synthetase and at Thromboxane were 3 nM and 27 nM, respectively. In the experiment with thrombocyte aggregation, the EC50 was 690 nM.

As to `CC(C)(C)NC(=NS(=O)(=O)c1ccccc1)Nc1cccc(/C(=C\CCCC(=O)O)c2cccnc2)c1` [Example V, 5E-6-(3-(3-tert.butyl-2-phenylsulphonyl-guanidino)phenyl)-6-(3-pyridyl)hex-5-enoic acid], the IC50 at thromboxane synthetase is 4 nM; on Thromboxane, 55 nM. For the same compound, the EC50 in the experiment on thrombocyte aggregation came out at 3000 nM.

Turning to `CC(C)CNC(=NC#N)Nc1cccc(/C(=C\CCCC(=O)O)c2cccnc2)c1` [F, 5E-6-(3-(2-cyano-3-(2-methylpropyl)guanidino)phenyl)-6-(3-pyridyl)hex-5-enoic acid], the IC50 is 30 nM at thromboxane synthetase and 7 nM on Thromboxane. Besides, the EC50 with thrombocyte aggregation amounted to 350 nM.

Consider `CC(C)(C)CNC(=NC#N)Nc1cccc(/C(=C\CCCC(=O)O)c2cccnc2)c1` [G, 5E-6-(3-(2-cyano-3-neopentyl-guanidino)phenyl)-6-(3-pyridyl)hex-5-enoic acid], for which the IC50 at thromboxane synthetase was found to be 14 nM; at Thromboxane, 22 nM. Also, the EC50 in the experiment on thrombocyte aggregation was found to be 260 nM.

In the case of `CCCCCNC(=NC#N)Nc1cccc(/C(=C\CCCC(=O)O)c2cccnc2)c1` [H, 5E-6-(3-(2-cyano-3-pentyl-guanidino)phenyl)-6-(3-pyridyl)hex-5-enoic acid], the results for the IC50 on thromboxane synthetase and on Thromboxane were 5 nM and 25 nM, respectively. In the experiment on thrombocyte aggregation, the EC50 worked out at 640 nM.

On to `CC(C)CNC(Nc1cccc(/C(=C\CCCC(=O)O)c2cccnc2)c1)=C(C#N)C#N` [J, 5E-6-(3-(2,2-dicyano-1-(2-methylpropylamino)ethyleneamino)phenyl)-6-(3-pyridyl)hex-5-enoic acid], for which the IC50 was 30 nM at thromboxane synthetase and 2 nM on Thromboxane. The EC50 in the experiment on thrombocyte aggregation worked out at 120 nM.

Regarding `CC(C)NC(Nc1cccc(/C(=C\CCCC(=O)O)c2cccnc2)c1)=C(C#N)C#N` [K, 5E-6-(3-(2,2-dicyano-1-isopropylaminoethyleneamino)phenyl)-6-(3-pyridyl)hex-5-enoic acid], the half-inhibitory concentration (IC50) at thromboxane synthetase came to 45 nM; at Thromboxane, 2 nM. Also, the EC50 with thrombocyte aggregation worked out at 20 nM.

Consider `CC(C)CCNC(Nc1cccc(/C(=C\CCCC(=O)O)c2cccnc2)c1)=C(C#N)C#N` [L, 5E-6-(3-(2,2-dicyano-1-(3-methylbutylamino)ethyleneamino)phenyl)-6-(3-pyridyl)hex-5-enoic acid], for which the values for the IC50 at thromboxane synthetase and at Thromboxane were 31 nM and 15 nM, respectively. Moreover, in the experiment on thrombocyte aggregation, the EC50 is 1200 nM.

Turning to `N#CC(C#N)=C(Nc1cccc(/C(=C\CCCC(=O)O)c2cccnc2)c1)NC1CCCC1` [M, 5E-6-(3-(2,2-dicyano-1-cyclopentylaminoethyleneamino)-phenyl)-6-(3-pyridyl)hex-5-enoic acid], the IC50 is 33 nM at thromboxane synthetase and 1 nM on Thromboxane. Further, in the experiment with thrombocyte aggregation, the EC50 turned out to be 50 nM.

With `CC(C)(C)CNC(Nc1cccc(/C(=C\CCCC(=O)O)c2cccnc2)c1)=C(C#N)C#N` [N, 5E-6-(3-(2,2-dicyano-1-neopentylaminoethyleneamino)phenyl)-6-(3-pyridyl)hex-5-enoic acid], the figures for the IC50 on thromboxane synthetase and at Thromboxane were 44 nM and 3 nM, respectively. In addition, the EC50 with thrombocyte aggregation was found to be 620 nM.

As for `N#CC(C#N)=C(Nc1cccc(/C(=C\CCCC(=O)O)c2cccnc2)c1)NC1CC1` [O, 5E-6-(3-(2,2-dicyano-1-cyclopropylaminoethyleneamino)phenyl)-6-(3-pyridyl)hex-5-enoic acid], the IC50 at thromboxane synthetase is 65 nM; at Thromboxane, 62 nM. In addition, the EC50 in the experiment with thrombocyte aggregation came to 40 nM.

Turning to `CCCNC(Nc1cccc(/C(=C\CCCC(=O)O)c2cccnc2)c1)=C(C#N)C#N` [P, 5E-6-(3-(2,2-dicyano-1-propylamino-ethyleneamino)phenyl)-6-(3-pyridyl)hex-5-enoic acid], the IC50 at thromboxane synthetase worked out at 40 nM; at Thromboxane it was 37 nM. Besides, the EC50 in the experiment on thrombocyte aggregation amounted to 50 nM.

For `CC(C)(C)NC(Nc1cccc(/C(=C\CCCC(=O)O)c2cccnc2)c1)=C(C#N)C#N` [Q, 5E-6-(3-(2,2-dicyano-1-tert.butylaminoethyleneamino)phenyl)-6-(3-pyridyl)hex-5-enoic acid], the IC50 at thromboxane synthetase and on Thromboxane was 50 nM throughout. Also, the EC50 with thrombocyte aggregation came out at 120 nM.

Consider `N#CN=C(Nc1ccc(/C(=C\CCCC(=O)O)c2cccnc2)cc1)NC1CCCCC1` [R, 5E-6-(4-(2-cyano-3-cyclohexyl-guanidino)phenyl)-6-(3-pyridyl)hex-5-enoic acid], for which the results for the IC50 on thromboxane synthetase and at Thromboxane were 180 nM and 1300 nM, respectively. For the same compound, the EC50 in the experiment with thrombocyte aggregation turned out to be 31000 nM.

Turning to `CC(C)(C)NC(=NC#N)Nc1cccc(C(CCCCC(=O)O)c2cccnc2)c1` (stereo not drawn) [S, 6-(3-(2-cyano-3-tert.butyl-guanidino)phenyl)-6-(3-pyridyl)hexanoic acid], the IC50 came to 37 nM at thromboxane synthetase and 120 nM on Thromboxane. Also, the EC50 in the experiment with thrombocyte aggregation came to 1100 nM.

The term IC50 denotes the concentration needed to halve the response being measured. The EC50 is the concentration that produces a half-maximal response.
